System: activated sludge
Experiment: Activated sludge SBR reactor, biological nitrogen removal with added AHLs signal molecule
Settings: remaining steps as Example 1 (10° C.)

CCCCCCCC(=O)N[C@H]1CCOC1=O [C8-HSL, N-octanoyl-L-homoserine lactone]
ammonia-nitrogen removal efficiency (10 μg/L after addition): 88.37%
ammonia-nitrogen removal efficiency (100 μg/L after addition): 94.54%

CCCCCCCCCCCC(=O)N[C@H]1CCOC1=O [C12-HSL, N-dodecanoyl-L-homoserine lactone]
ammonia-nitrogen removal efficiency (10 μg/L after addition): 90.79%
ammonia-nitrogen removal efficiency (100 μg/L after addition): 80.95%
